The source of these data is article PMC8781192, “An In Silico and an In Vitro Inhibition Analysis of Glycogen Phosphorylase by Flavonoids, Styrylchromones, and Pyrazoles” (Nutrients, 2022).

Assay [1] deals with T1, rabbit mGPa (Oryctolagus cuniculus, UniProt P00489).
T1 construct: purchased Creative Enzymes
T1 sequence (P00489 2-843 limits assumed): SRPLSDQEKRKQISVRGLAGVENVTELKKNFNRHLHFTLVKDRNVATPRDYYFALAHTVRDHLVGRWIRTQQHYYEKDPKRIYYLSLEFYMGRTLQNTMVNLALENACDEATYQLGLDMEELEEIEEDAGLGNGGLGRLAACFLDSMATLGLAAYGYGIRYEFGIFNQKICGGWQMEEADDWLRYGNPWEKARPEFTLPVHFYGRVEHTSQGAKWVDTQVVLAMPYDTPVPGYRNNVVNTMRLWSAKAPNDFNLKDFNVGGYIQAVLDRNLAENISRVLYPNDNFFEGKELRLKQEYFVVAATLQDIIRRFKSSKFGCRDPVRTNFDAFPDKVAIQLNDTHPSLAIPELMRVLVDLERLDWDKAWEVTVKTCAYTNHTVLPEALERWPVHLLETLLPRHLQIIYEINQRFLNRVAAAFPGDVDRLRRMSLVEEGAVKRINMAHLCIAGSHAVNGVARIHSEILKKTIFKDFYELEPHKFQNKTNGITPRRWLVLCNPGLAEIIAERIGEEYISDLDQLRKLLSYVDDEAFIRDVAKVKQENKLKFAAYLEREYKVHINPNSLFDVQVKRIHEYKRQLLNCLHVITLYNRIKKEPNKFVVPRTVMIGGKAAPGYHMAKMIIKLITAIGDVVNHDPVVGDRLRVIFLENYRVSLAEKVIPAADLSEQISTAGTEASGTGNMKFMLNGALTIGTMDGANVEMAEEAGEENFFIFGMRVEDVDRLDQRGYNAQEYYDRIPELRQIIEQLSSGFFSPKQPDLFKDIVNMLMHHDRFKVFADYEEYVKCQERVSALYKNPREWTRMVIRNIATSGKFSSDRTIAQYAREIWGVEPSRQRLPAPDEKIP
In words: In vitro effect of glucose on inhibitor potency (GPa inhibition with 0, 5, 10 mM glucose). The note with it: mean ± SEM. Type of assay: biochemical. The protocol: The method was performed as described in Section 2.2, with slight modifications. […] The enzymatic reaction was then started with the addition of a 50 mM HEPES buffer solution with a pH of 7.2 containing 100 mM KCl, 2.5 mM MgCl2, 0.25 mM glucose 1-phosphate, and 0.25 mg/mL glycogen. This buffer was used without glucose, or it was enriched with 5 and 10 mM of glucose and was incubated for 30 min at 37 °C in the reaction mixture. After this incubation time, BIOMOL® Green was added, and the reaction was monitored in a microplate reader (Synergy HT, BioTek Instruments, Winooski, VT, USA) at 620 nm.

In assay [2] the target is T1, rabbit mGPa. In words: In vitro glycogen phosphorylase inhibition assay (direction of glycogen synthesis, colorimetric phosphate). Type of assay: biochemical. Particulars: for inhibition at 50 µM: at 50 μM (highest concentration tested). The protocol: The GP activity was measured using a previously optimized and validated method. In each assay, GP activity was measured by the direction of glycogen synthesis, which involved monitoring the colorimetric determination of inorganic phosphate deriving from glucose 1-phosphate. […] The enzymatic reaction was then started with the addition of a 50 mM HEPES buffer solution, with a pH of 7.2, containing 100 mM KCl, 2.5 mM MgCl2, 0.25 mM glucose 1-phosphate, and 0.25 mg/mL glycogen incubated for 30 min at 37 °C. After this incubation time, the reagent for colorimetric phosphate quantitation, BIOMOL® Green, was added to the reaction mixture. The reaction was monitored in a microplate reader (Synergy HT, BioTek Instruments, Winooski, VT, USA) at 620 nm.

[3] abbreviates: no glucose, mean ± SEM, read-out: GPa IC50 value.
Where [4] appears, read: mean ± SEM, read-out: GPa inhibitory activity (%).
The mark [5] stands for this setting: Table S2 summary of activities, read-out: IC50.

Where only a bound is given, the exact number is not on record here.

Usually IC50 stands for the concentration that gives 50% inhibition.

`CN(C)C(=O)[C@H](O)[C@H](Cc1ccccc1)NC(=O)c1cc2cc(Cl)ccc2[nH]1` [CP-91149, 5-chloro-N-[(1S,2R)-3-(dimethylamino)-2-hydroxy-3-oxo-1-(phenylmethyl)propyl]-1H-indole-2-carboxamide, reference compound]: the IC50 in assay [1] (GPa IC50 value, 0 mM of glucose) worked out at 0.58 ± 0.09 µM; in assay [1] (GPa IC50 value, 5 mM of glucose), 0.39 ± 0.05 µM; in assay [1] (GPa IC50 value, 10 mM of glucose), 0.22 ± 0.04 µM; in assay [2] (setting [3]) it was 0.58 ± 0.09 µM.

On to `Oc1ccccc1-c1n[nH]cc1/C=C/c1ccccc1` [Compound 1], for which the inhibition at 50 µM in assay [2] (setting [4]) was under 30%.

Regarding `Oc1ccccc1-c1n[nH]cc1/C=C/c1ccc(Cl)cc1` [Compound 2], the inhibition at 50 µM in assay [2] (setting [4]) was under 30%.

With `COc1ccc(/C=C/c2c[nH]nc2-c2ccccc2O)cc1` [Compound 3], the inhibition at 50 µM in assay [2] (setting [4]) is under 30%.

For the molecule `Oc1ccccc1-c1n[nH]cc1/C=C/c1ccccc1C(F)(F)F` [Compound 4], the inhibition at 50 µM in assay [2] (setting [4]) was under 30%.

Take `CCCCCCCCCCn1cc(/C=C/c2ccccc2)c(-c2ccccc2O)n1` [Compound 5]: the inhibition at 50 µM in assay [2] (setting [4]) was under 30%.

On to `CCCCCCCCCCCCn1cc(/C=C/c2ccccc2)c(-c2ccccc2O)n1` [Compound 6], for which the inhibition at 50 µM in assay [2] (setting [4]) was under 30%.

As to `CCCCCCCCCCCCn1cc(/C=C/c2ccc(Cl)cc2)c(-c2ccccc2O)n1` [Compound 7], the inhibition at 50 µM in assay [2] (setting [4]) was under 30%.

Take `O=[N+]([O-])c1cccc(/C=C\c2c[nH]nc2-c2ccccc2O)c1` [Compound 8]: in assay [2] (setting [4]), the inhibition at 50 µM is under 30%.

Turning to `COc1ccc(-c2n[nH]cc2/C=C\c2ccc([N+](=O)[O-])cc2)c(O)c1` [Compound 9], the inhibition at 50 µM in assay [2] (setting [4]) was under 30%.

Turning to `Oc1ccccc1-c1cc(/C=C/c2ccccc2)[nH]n1` [Compound 10], the inhibition at 50 µM in assay [2] (setting [4]) was under 30%.

For `Oc1ccccc1-c1cc(/C=C/c2ccc(Cl)cc2)[nH]n1` [Compound 11], in assay [2] (setting [4]), the inhibition at 50 µM was under 30%.

For `COc1ccc(/C=C/c2cc(-c3ccccc3O)nn2-c2ccccc2)cc1` [Compound 12], the inhibition at 50 µM in assay [2] (setting [4]) is under 30%.

Regarding `COc1ccc(/C=C/c2cc(-c3ccccc3O)nn2S(=O)(=O)c2ccc(C)cc2)cc1` [Compound 13], in assay [2] (setting [4]), the inhibition at 50 µM is under 30%.

For the molecule `Cc1ccc(S(=O)(=O)Oc2ccccc2-c2cc(/C=C/c3ccccc3)n(S(=O)(=O)c3ccc(C)cc3)n2)cc1` [Compound 14], the inhibition at 50 µM in assay [2] (setting [4]) was under 30%.

Regarding `COc1ccc(/C=C/c2cc(-c3ccccc3OS(=O)(=O)c3ccc(C)cc3)nn2S(=O)(=O)c2ccc(C)cc2)cc1` [Compound 15], the inhibition at 50 µM in assay [2] (setting [4]) is under 30%.

Take `O=c1cc(/C=C/c2ccccc2)oc2cc(O)ccc12` [Compound 16]: in assay [2] (setting [4]), the inhibition at 50 µM is under 30%.

For `O=c1cc(/C=C/c2ccc(O)cc2)oc2cc(O)ccc12` [Compound 17], the inhibition at 50 µM in assay [2] (setting [4]) is under 30%.

`O=c1cc(/C=C/c2ccc(O)c(O)c2)oc2ccccc12` [Compound 18]: in assay [2] (setting [4]), the inhibition at 50 µM was under 30%.

For the molecule `O=c1cc(/C=C/c2ccc(O)c(O)c2)oc2cc(O)ccc12` [Compound 19], in assay [2] (setting [4]), the inhibition at 50 µM was under 30%.

With `O=c1cc(/C=C/c2ccc(O)c(O)c2)oc2cccc(O)c12` [Compound 20], the inhibition at 50 µM in assay [2] (setting [4]) was under 30%.

For the molecule `O=c1cc(/C=C/c2ccccc2)oc2cc(O)cc(O)c12` [Compound 21], in assay [2] (setting [4]), the inhibition at 50 µM was under 50%.

For `O=c1cc(/C=C/c2ccc(O)cc2)oc2cc(O)cc(O)c12` [Compound 22], the inhibition at 50 µM in assay [2] (setting [4]) was under 50%.

As for `O=c1cc(/C=C/c2ccc(O)c(O)c2)oc2cc(O)cc(O)c12` [Compound 23], the IC50 in assay [2] (setting [3]) turned out to be 31.7 ± 2.4 µM.

For `O=c1c(O)c(/C=C/c2ccc(O)c(O)c2)oc2c(O)c(O)ccc12` [Compound 24], the IC50 in assay [2] (setting [5]) is over 25 µM. Also, the inhibition at 25 µM in assay [2] (at 25 μM (highest concentration tested), mean ± SEM, read-out: GPa inhibitory activity (%)) came to 33.7 ± 6.5%.

As for `COc1cc(OC)c2c(=O)cc(/C=C/c3ccc(O)c(O)c3)oc2c1` [Compound 25], in assay [2] (setting [4]), the inhibition at 50 µM was under 30%.

Take `COc1cc(OC)c2c(=O)cc(/C=C/c3ccc(OC)c(OC)c3)oc2c1` [Compound 26]: the inhibition at 50 µM in assay [2] (setting [4]) came to 42.2 ± 5.6%.

Turning to `COc1ccc(/C=C/c2cc(=O)c3ccc(OC)c(OC)c3o2)cc1OC` [Compound 27], in assay [2] (setting [4]), the inhibition at 50 µM is under 30%.

For the molecule `COc1ccc2c(=O)cc(/C=C/c3ccc(OC)c(OC)c3)oc2c1` [Compound 28], the inhibition at 50 µM in assay [2] (setting [4]) was under 30%.

As for `COc1ccc(/C=C/c2cc(=O)c3c(OC)cccc3o2)cc1OC` [Compound 29], the inhibition at 50 µM in assay [2] (setting [4]) was under 30%.

For the molecule `O=c1cc(/C=C/C=C/c2ccc(O)c(O)c2)oc2ccccc12` [Compound 30], the inhibition at 50 µM in assay [2] (setting [4]) was under 30%.

Consider `O=c1cc(/C=C/C=C/c2ccc(O)c(O)c2)oc2cccc(O)c12` [Compound 31], for which the inhibition at 50 µM in assay [2] (setting [4]) was under 30%.

Regarding `O=c1cc(/C=C/C=C/c2ccc(O)c(O)c2)oc2cc(O)ccc12` [Compound 32], the half-inhibitory concentration (IC50) in assay [1] (0 mM of glucose, read-out: GPa IC50 value) is 16.7 ± 1.5 µM; in assay [1] (5 mM of glucose, read-out: GPa IC50 value), 13.4 ± 1.6 µM; in assay [1] (10 mM of glucose, read-out: GPa IC50 value), 10.8 ± 1.2 µM; in assay [2] (setting [3]), 16.7 ± 1.5 µM.

As for `COc1ccc2c(=O)cc(/C=C/C=C/c3ccc(O)c(O)c3)oc2c1` [Compound 34], the inhibition at 50 µM in assay [2] (setting [4]) was 51.9 ± 1.8%.

As for `COc1ccc2c(=O)cc(/C=C/C=C/c3ccc(OC)c(OC)c3)oc2c1` [Compound 35], the inhibition at 50 µM in assay [2] (setting [4]) was determined as 35.8 ± 4.6%.

`O=c1cc(-c2ccccc2)oc2cc(O)ccc12` [Compound 36]: the inhibition at 50 µM in assay [2] (setting [4]) is under 30%.

Take `O=c1cc(-c2ccc(O)cc2)oc2cc(O)ccc12` [Compound 37]: the inhibition at 50 µM in assay [2] (setting [4]) is under 30%.

Regarding `O=c1cc(-c2ccc(O)c(O)c2)oc2ccccc12` [Compound 39], the IC50 in assay [2] (setting [5]) was over 50 µM. In addition, the inhibition at 50 µM in assay [2] (setting [4]) is under 30%.

With `O=c1cc(-c2ccc(O)c(O)c2)oc2cc(O)ccc12` [Compound 40], in assay [2] (setting [5]), the IC50 is over 50 µM. Besides, the inhibition at 50 µM in assay [2] (setting [4]) was under 30%.

Consider `O=c1cc(-c2ccc(O)c(O)c2)oc2cccc(O)c12` [Compound 41], for which the IC50 in assay [2] (setting [5]) is over 50 µM. Also, the inhibition at 50 µM in assay [2] (setting [4]) is under 30%.

In the case of `O=c1cc(-c2ccc(O)cc2)oc2cc(O)cc(O)c12` [Compound 42, Apigenin], in assay [2] (setting [4]), the inhibition at 50 µM was determined as 35.7 ± 2.1%.

Take `O=c1cc(-c2ccc(O)c(O)c2)oc2cc(O)cc(O)c12` [Compound 43, Luteolin]: the IC50 in assay [2] (setting [5]) was over 50 µM. Moreover, the inhibition at 50 µM in assay [2] (setting [4]) was under 30%.

As to `O=c1c(O)c(-c2ccccc2)oc2cc(O)cc(O)c12` [Compound 44, Galangin], the inhibition at 50 µM in assay [2] (setting [4]) was under 30%.

For `O=c1c(O)c(-c2ccc(O)c(O)c2)oc2cc(O)cc(O)c12` [Compound 45, Quercetin], the concentration for half-maximal inhibition (IC50) in assay [2] (setting [5]) is over 50 µM. Besides, in assay [2] (setting [4]), the inhibition at 50 µM is under 30%.

`O=c1cc(-c2ccc(O)cc2)oc2cc(O)c(O)c(O)c12` [Compound 48, Scutellarein]: the IC50 in assay [2] (setting [5]) was over 50 µM. In addition, the inhibition at 50 µM in assay [2] (setting [4]) is under 30%.

`O=C(O)[C@H]1O[C@@H](Oc2cc3oc(-c4ccccc4)cc(=O)c3c(O)c2O)[C@H](O)[C@@H](O)[C@@H]1O` [Compound 49, Baicalin]: the IC50 in assay [2] (setting [3]) worked out at 20.5 ± 2.5 µM.

Take `O=c1c(O)c(-c2ccc(O)c(O)c2)oc2cc(O)c(O)c(O)c12` [Compound 50, Quercetagetin]: the IC50 in assay [2] (setting [5]) was over 50 µM. In assay [2] (setting [4]), the inhibition at 50 µM is under 30%.

`COc1cc2oc(-c3ccccc3)cc(=O)c2c(O)c1O` [Compound 51, Baicalein-7-methylether]: the IC50 in assay [2] (setting [3]) amounted to 22.6 ± 0.4 µM.

Take `COc1cc2oc(-c3ccccc3)cc(=O)c2c(OC)c1OC` [Compound 52, Baicalein-5,6,7-trimethylether]: the inhibition at 50 µM in assay [2] (setting [4]) was under 30%.
